From patent US10562891B2, “Quinazolinones as PARP14 inhibitors” (Ribon Therapeutics Inc., priority 2017, dated 2020)

Experiments:
[1] = system: LL/2 cells; test: Inhibition of tumor growth and survival in the LL/2 murine syngeneic model; assay type: in vivo, female C57BL/6 mice; details: LL/2 subcutaneous right flank, 500 mg/kg PO BID*21 days, treatment group versus vehicle group, study terminated D21
From the text: For the LL/2 study (FIGS. 4A-4C), female C57BL/6 mice were inoculated subcutaneously in the right flank with 5×10^5 LL/2 cells (ATCC, CRL-1642™) for tumor development. Five days after tumor inoculation, 16 mice with tumor size ranging from 37-72 mm^3 (average tumor size 51 mm^3) were selected and assigned into 2 groups using stratified randomization with 8 mice in each group based upon their tumor volumes. The treatments were started from the next day post randomization (defined as randomization day DO) and were treated with vehicle (0.5% methylcellulose +0.2% Tween 80), or the compound of Example 235 (500 mg/kg PO BID*21 days). The tumor sizes were measured three times per week during the treatment. The entire study was terminated on D21.
Statistical significance, calculated using 2way ANOVA multiple comparisons in which each treatment group was compared to vehicle control, is indicated by an asterisk. Statistics were performed on groups with less than 20% animal loss (D20 for 4T1, D17 for LL/2). Survival benefit was determined for the LL/2 study (FIG. 4B). Individual mice were euthanized once they reached the termination endpoint (TV>2000 mm3). The time from treatment initiation to termination was deemed as its survival time and plotted in a Kaplan-Meier survival curve format. Mice remaining at study end date of 21 days were euthanized at day 21 after treatment initiation. […]

[2] = molecular target: catalytic domain of human PARP14 (Homo sapiens (Human), UniProt Q460N5); test: Enzymatic assay for inhibition of PARP14 (DELFIA, auto-modification with biotin-NAD); assay type: biochemical; details: auto-modification of PARP14 by biotin-NAD, 50 nM PARP14, 3 μM biotin-NAD
Chain of catalytic domain of human PARP14 (Q460N5 1611-1801): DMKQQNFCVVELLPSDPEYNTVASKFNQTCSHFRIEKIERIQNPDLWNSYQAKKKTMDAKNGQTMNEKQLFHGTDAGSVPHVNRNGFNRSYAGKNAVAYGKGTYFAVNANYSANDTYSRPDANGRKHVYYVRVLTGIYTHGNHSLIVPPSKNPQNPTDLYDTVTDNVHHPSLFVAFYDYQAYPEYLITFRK
In short: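 His-TEV-tagged PARP14 catalytic domain (50 nM) preincubated with compound 30 min at 25 °C, then auto-modified with 3 μM biotin-NAD for 3 h at 25 °C in HEPES pH 8 buffer with DTT. IC50 from 4-parameter fit, rucaparib and DMSO as controls.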

[3] = system: 4T1 cells; test: Inhibition of tumor growth in the 4T1 murine syngeneic model; assay type: in vivo, female BALB/c mice; details: 4T1 orthotopic in mammary fat pad, 500 mg/kg PO BID*21 days, treatment group versus vehicle group, study terminated D20
From the text: FIGS. 3A and 4A illustrate that a PARP14 inhibitor (Example 235) reduces tumor growth in the murine syngeneic models (A) 4T1 and (B) LL/2. For the 4T1 study (FIGS. 3A and 3B), female BALB/c mice were inoculated orthotopically in the mammary fat pad with 1×10^5 4T1 cells (ATCC, CRL-2539™) for tumor development. Seven days after tumor inoculation, 16 mice with tumor size ranging from 41-78 mm^3 (average tumor size 56 mm^3) were selected and assigned into 2 groups using stratified randomization with 8 mice in each group based upon their tumor volumes. The treatments were started from the next day post randomization (defined as randomization day DO) and were treated with vehicle (0.5% methylcellulose +0.2% Tween 80), or the compound of Example 235 (500 mg/kg PO BID*21 days). The tumor sizes were measured three times per week during the treatment. The entire study was terminated on D20.
Statistical significance, calculated using 2way ANOVA multiple comparisons in which each treatment group was compared to vehicle control, is indicated by an asterisk. Statistics were performed on groups with less than 20% animal loss (D20 for 4T1, D17 for LL/2). Survival benefit was determined for the LL/2 study (FIG. 4B). Individual mice were euthanized once they reached the termination endpoint (TV>2000 mm3). […]

O=c1[nH]c(CS[C@H]2CC[C@H](O)CC2)nc2cc(OCC3CC3)cc(F)c12 [Example 235, 7-(Cyclopropylmethoxy)-5-fluoro-2-(((trans-4-hydroxycyclohexyl)thio)methyl)quinazolin-4(3H)-one]
Tumor growth inhibition [1]: 63%
IC50 [2]: < 1000 nM
Tumor growth inhibition [3]: 31%
